Reference: patent publication US20010005511A1, “Insect control by insect growth regulators broadcast by volatilization” (Wellmark International, priority 1999, published 2001)
Values joined by “and” are separate entries in the source; they are usually repeats but may differ in a detail not shown here. Equal entries are not always repeated. Where two headings read alike, the source gives them in different places.

How the values were obtained:
[1] = test system: fleas; assay: Flea control on carpet circles by S-methoprene volatilized by a plug-in heater; assay type: in vivo, Ctenocephalides felis; conditions: for Adult Flea Emergence (From 100 Eggs), Individual Tests: 0.1 g, room 78.4 m^3, activation time 4 h, three carpet circles; for Emax: Ctenocephalides felis
Description: This example illustrates the efficacy of S-methoprene volatilized by a plug-in heater designed for use with mosquito repellents. The heater was an AgRevo heater, 110-120v, 50-60 Hz, 5 watts, purchased from DBK Espana Household Technologies, and the tests were performed in the same test room used for Example 1, adjusted to a floor area of 18.6 m^2 (200 ft^2), resulting in a room volume of 78.4 m^3 (2,800 ft^3). The S-methoprene was placed in the heater by wetting a Whatman filter pad consisting of 50% cellulose and 50% glass fiber, the wetting solution consisting of 8.8% (by weight) S-methoprene in neat 1-methoxy 2-propanol. The amount of solution used was 1.2 g, resulting in 0.1 g of S-methoprene in the pad. Carpet circles were used as in the preceding examples, and all other procedures were the same as those in Example 1. Carpet circles were placed at distances of 0.61 m (2 ft), 3.0 m (10 ft), and 6.1 m (20 ft) from the plug-in-heater, with three carpet circles at each location. Three additional carpet circles were retained outside the room to avoid exposure to the volatilized S-methoprene for use as controls. The activation time for the test circles was four hours. Efficacy was determined by comparing the results from the test circles to those from the control circles.

[2] = test system: fleas; assay: Residual flea control on carpet circles by S-methoprene volatilized from a 60-watt light bulb in a residential living room; assay type: in vivo, Ctenocephalides felis; conditions: for Number of Adult Fleas Emerging From 100 Eggs, individual test samples: 0.1 g (Solution B), 4 h exposure, 6.1 m from bulb, samples 1-6; for Percent Control (Arithmetic) / Percent Control (Geometric): relative to control samples
Description: This example is a further illustration of the efficacy of S-methoprene volatilized by heating from an incandescent light bulb in the control of fleas. The test was performed in a conventional residential living room with a floor area of 21.5 m^2 (231 ft^2). A single standard 60-watt incandescent bulb was used as the heat source, with a felt ring containing 0.1 g of S-methoprene (using Solution B of Example 1). The temperature of the bulb surface at the location of the felt ring was approximately 200° F. (93° C.). The exposure time (the length of time that the lamp containing the bulb was turned on) was four hours. The carpet circles were placed twenty feet (6.1 m) from the bulb.
After exposure to the volatilized S-methoprene, the carpet circles were each aged (allowed to rest without additional exposure) for 1, 2, 3, or 4 months. They were then challenged by infestation with flea eggs in the same manner as described above in Example 1. The results, expressed in terms of the number of adult fleas emerging after 35 days, are listed in Table II, together with corresponding results from control samples.

[3] = test system: fleas (Ctenocephalides felis); assay: Flea control on carpet circles by S-methoprene volatilized from a 100-watt light bulb in a test room; assay type: in vivo; conditions: for Efficacy at Indicated Distance from Source, 35-Day Residual Effect: carpet rested 35 days before infestation
Description: This example illustrates the efficacy of S-methoprene volatilized by heating from an incandescent light bulb in the control of fleas (Ctenocephalides felis).
Testing was performed in a test room measuring 8.5 m (28 ft.) (length)×6.1 m (20 ft) (width)×4.3 m (14 ft.) (height) with a movable partition to reduce the room to the desired size. For this series of tests, the partition was placed in various positions such that the horizontal area of the room was variously:
A single standard 100-watt incandescent light bulb was used as the heating source, and a felt ring that was cut to fit on the top of the light bulb was used as the support for the liquid S-methoprene solution. Three liquid S-methoprene solutions were used as follows:
Solution A: S-methoprene and IRGANOX® L57 (in a weight ratio of 50:1), to achieve a solution of […] S-methoprene by weight. IRGANOX ® L57 (Ciba-Geigy Corp., Hawthorne, N.Y., USA) is a liquid aminic antioxidant in the form of an alkylated diphenylamine. No solvents were used.
Solution B: S-methoprene and BHT (in a weight ratio of 50:1), dissolved in a mixture of 1-methoxy-2-propanol and deionized water (in a weight ratio of 84:16) to achieve a solution of 5.2% S-methoprene by weight.
Solution C: S-methoprene and BHT (in a weight ratio of 50:1), dissolved in a mixture of 1-methoxy-2-propanol and Belmay B-5 Fragrance (in a weight ratio of 44:56) to achieve a solution of 5% S-methoprene by weight.
As the infested target, circular pieces of carpet were used. Each piece was 7.6 cm (3 inches) in diameter cut from a 1.3-cm (0.5-inch) pile nylon carpet, and individual circles were placed at distances of 0.61 m (2 ft), 3.0 m (10 ft), and 6.1 m (20 ft) from the light bulb.
The felt ring in each experiment was wetted with 2 g of solution. […] The bulb was turned on for periods of time ranging from 4 h to 120 h. This is referred to below as the “Activation Time.” The temperature of the bulb surface at the location of the felt ring was approximately 215° F. (102° C.). In some of the tests, a horizontal barrier was placed above the carpet circles at distances of 5.1 cm (2 inches) or 7.6 cm (3 inches), to simulate penetration of the S-methoprene to difficult-to-reach places such as under furniture. The carpet circles were placed in two positions below the barrier—one in which the center of the carpet circle was 30 cm (12 inches) from the edge of the barrier (identified below as “Position 1”), and the other in which the center of the carpet circle was 7.6 cm (3 inches) from the edge of the barrier (identified below as “Position 2”).
After these exposures, the carpet circles were removed from the room, and sprinkled with flea rearing media and infested with 100 viable flea eggs. Similar carpet circles that had not undergone exposure to the volatilized S-methoprene were similarly sprinkled and infested. The exposed (test) and unexposed (control) carpet circles were then placed in a warm (27° C., 80° F.), high humidity (80% relative humidity) room for 35 days to allow any viable flea eggs in the circles to develop to adult fleas. In some of the tests, the carpet circles were allowed to rest for 35 days after removal from the treatment room before being infested with the flea eggs, to test for residual efficacy. In all cases, efficacy was determined by comparing the results from test circles to those from the control circles.

[4] = 0.1 g, room 78.4 m^3, activation time 4 h, carpet centre 7.6 cm from barrier edge, 3.0 m
[5] = 0.1 g, room 78.4 m^3, activation time 4 h, carpet centre 30 cm from barrier edge, 3.0 m

SMILES: COC(C)(C)CCC[C@H](C)C/C=C/C(C)=C/C(=O)OC(C)C [S-methoprene, (E,E)-(7S)-11-methoxy-3,7,11-trimethyldodeca-2,4-dienoate, isopropyl ester]
- Adult Flea Emergence (From 100 Eggs), Average ([1]; 0.61 m from heater): 1
- Adult Flea Emergence (From 100 Eggs), Individual Tests ([1]; 0.61 m from heater): 0/1/2
- Adult Flea Emergence (From 100 Eggs), Average ([1]; 3.0 m from heater): 0.3
- Adult Flea Emergence (From 100 Eggs), Individual Tests ([1]; 3.0 m from heater): 1/0/0
- Adult Flea Emergence (From 100 Eggs), Average ([1]; 6.1 m from heater): 0.3
- Adult Flea Emergence (From 100 Eggs), Individual Tests ([1]; 6.1 m from heater): 1/0/0
- Emax ([1]; 0.61 m from heater, read-out: % Efficacy (Relative to Control)): 92.7%
- Emax ([1]; 3.0 m from heater, read-out: % Efficacy (Relative to Control)): 97.8%
- Emax ([1]; 6.1 m from heater, read-out: % Efficacy (Relative to Control)): 97.8%
- Emax ([1]; all distances from heater, read-out: % Efficacy (Relative to Control), Overall): 96.1%
- Flea control, result in words ([1]; all distances from the plug-in heater): excellent control at all distances
- Number of Adult Fleas Emerging From 100 Eggs, Mean (Arithmetic), test samples ([2]; 1 month after treatment): 2.8
- Number of Adult Fleas Emerging From 100 Eggs, Mean (Geometric), test samples ([2]; 1 month after treatment): 2.7
- Number of Adult Fleas Emerging From 100 Eggs, individual test samples ([2]; 1 month after treatment): 3 (2×) and 2 (3×) and 5
- Percent Control (Arithmetic) ([2]; 1 month after treatment): 95.6%
- Percent Control (Geometric) ([2]; 1 month after treatment): 95.8%
- Number of Adult Fleas Emerging From 100 Eggs, Mean (Arithmetic), test samples ([2]; 2 months after treatment): 3.2
- Number of Adult Fleas Emerging From 100 Eggs, Mean (Geometric), test samples ([2]; 2 months after treatment): 1.9
- Number of Adult Fleas Emerging From 100 Eggs, individual test samples ([2]; 2 months after treatment): 5 and 2 (2×) and 0 and 4 and 6
- Percent Control (Arithmetic) ([2]; 2 months after treatment): 95.5%
- Percent Control (Geometric) ([2]; 2 months after treatment): 97.3%
- Number of Adult Fleas Emerging From 100 Eggs, Mean (Arithmetic), test samples ([2]; 3 months after treatment): 3.7
- Number of Adult Fleas Emerging From 100 Eggs, Mean (Geometric), test samples ([2]; 3 months after treatment): 0.7
- Number of Adult Fleas Emerging From 100 Eggs, individual test samples ([2]; 3 months after treatment): 1 and 0 (3×) and 5 and 16
- Percent Control (Arithmetic) ([2]; 3 months after treatment): 94.0%
- Percent Control (Geometric) ([2]; 3 months after treatment): 98.9%
- Number of Adult Fleas Emerging From 100 Eggs, Mean (Arithmetic), test samples ([2]; 4 months after treatment): 4.0
- Number of Adult Fleas Emerging From 100 Eggs, Mean (Geometric), test samples ([2]; 4 months after treatment): 3.0
- Number of Adult Fleas Emerging From 100 Eggs, individual test samples ([2]; 4 months after treatment): 1 (2×) and 8 and 4 (2×) and 6
- Percent Control (Arithmetic) ([2]; 4 months after treatment): 94.3%
- Percent Control (Geometric) ([2]; 4 months after treatment): 95.7%
- Flea control, result in words ([2]; all cases, 1-4 months after treatment): excellent control was achieved in all cases
- Persistence of the treatment ([2]; carpet circles aged after exposure): persistent for up to four months
- Efficacy Under 2-in. Overhead Barrier, Position 2 [3, 4]: Position 2: 96%
- Efficacy Under 3-in. Overhead Barrier, Position 2 [3, 4]: Position 2: 100%
- Efficacy Under 2-in. Overhead Barrier, Position 1 [3, 5]: Position 1: 99%
- Efficacy Under 3-in. Overhead Barrier, Position 1 [3, 5]: Position 1: 100%
- Efficacy at Indicated Distance from Source ([3]; 0.1 g, room 78.4 m^3, activation time 24 h, 0.61 m from source): 99%
- Efficacy at Indicated Distance from Source, 35-Day Residual Effect ([3]; 0.1 g, room 78.4 m^3, activation time 24 h, 0.61 m): 96%
- Efficacy at Indicated Distance from Source ([3]; 0.1 g, room 78.4 m^3, activation time 24 h, 3.0 m from source): 99%
- Efficacy at Indicated Distance from Source, 35-Day Residual Effect ([3]; 0.1 g, room 78.4 m^3, activation time 24 h, 3.0 m): 96%
- Efficacy at Indicated Distance from Source ([3]; 0.1 g, room 78.4 m^3, activation time 24 h, 6.1 m from source): 99%
- Efficacy at Indicated Distance from Source, 35-Day Residual Effect ([3]; 0.1 g, room 78.4 m^3, activation time 24 h, 6.1 m): 97%
- Efficacy at Indicated Distance from Source ([3]; 0.1 g, room 117.6 m^3, activation time 4 h, 0.61 m from source): 100%
- Efficacy at Indicated Distance from Source ([3]; 0.1 g, room 117.6 m^3, activation time 4 h, 3.0 m from source): 99.4%
- Efficacy at Indicated Distance from Source ([3]; 0.1 g, room 117.6 m^3, activation time 4 h, 6.1 m from source): 99.4%
- Efficacy at Indicated Distance from Source ([3]; 0.1 g, room 186.8 m^3, activation time 4 h, 0.61 m from source): 100%
- Efficacy at Indicated Distance from Source ([3]; 0.1 g, room 186.8 m^3, activation time 4 h, 3.0 m from source): 99.6%
- Efficacy at Indicated Distance from Source ([3]; 0.1 g, room 186.8 m^3, activation time 4 h, 6.1 m from source): 100%
- Efficacy at Indicated Distance from Source ([3]; 0.1 g, room 196 m^3, activation time 4 h, 0.61 m from source): 95%
- Efficacy at Indicated Distance from Source ([3]; 0.1 g, room 196 m^3, activation time 4 h, 3.0 m from source): 97.3%
- Efficacy at Indicated Distance from Source ([3]; 0.1 g, room 196 m^3, activation time 4 h, 6.1 m from source): 96.5%
- Efficacy at Indicated Distance from Source ([3]; 1.8 g S-methoprene volatilized, room 78.4 m^3, activation time 120 h, 0.61 m from source): 100%
- Efficacy at Indicated Distance from Source ([3]; 1.8 g S-methoprene volatilized, room 78.4 m^3, activation time 120 h, 3.0 m from source): 100%
- Efficacy at Indicated Distance from Source ([3]; 1.8 g S-methoprene volatilized, room 78.4 m^3, activation time 120 h, 6.1 m from source): 100%
- Flea control, result in words ([3]; all cases, including lower dosage rate, 35-day residual effect, overhead barrier): excellent control was achieved in all cases
